Measured values: patent publication US20240124503A1, “HETEROAROMATIC PHOSPHONIUM SALTS AND THEIR USE TREATING CANCER” (FLORATEK PHARMA S.A., priority 2021, published 2024)

How the values were obtained:
[1] = target: T1, KIT(D816V) (Homo sapiens, UniProt P10721, D816V); experiment: KINOMEscan competition binding, KIT(D816V)
T1 construct: purchased Eurofins (KINOMEscan); host or cells: E. coli BL21-derived host (T7 phage) or HEK-293
Description: Selected compounds were screened for kinase inhibition using the KINOMEscan™ assay (Eurofins) which is based on a competition binding assay that quantitatively measures the ability of a compound to compete with an immobilized, active-site directed ligand. The assay was performed by combining three components: DNA-tagged kinase; immobilized ligand; and the test compound. The ability of the test compound to compete with the immobilized ligand was measured via quantitative PCR of the DNA tag.
Kinase-tagged T7 phage strains were prepared in an E. coli host derived from the BL21 strain. E. coli were grown to log-phase and infected with T7 phage and incubated with shaking at 32° C. until lysis. The lysates were centrifuged and filtered to remove cell debris. The remaining kinases were produced in HEK-293 cells and subsequently tagged with DNA for qPCR detection. Streptavidin-coated magnetic beads were treated with biotinylated small molecule ligands for 30 minutes at room temperature to generate affinity resins for kinase assays. […] Kds were determined using an 11-point 3-fold compound dilution series with three DMSO control points. […] The kinase concentration in the eluates was measured by qPCR. […]
Binding constants (Kds) were calculated with a standard dose-response curve using the Hill equation: Response=Background+[Signal−Background/1+(Kd^Hill Slope/Dose^Hill Slope)] […]

[2] = tested on: lung PDX; experiment: Cell viability, lung PDX (panel statement); type: cell-based; conditions: text summary of Table 15; read-out: IC50, lung PDX growth
Description: PDX-derived cell cultures were obtained from tumors explanted from mice and isolated by mechanical and enzymatic dissociation. […] Cells were harvested and seeded in 96-wells plates at a density of 1.25 to 5×10^3 cells/well for cytotoxicity assays. Cells were incubated 48 h at 37° C. prior to addition of test molecules and vehicle (DMSO, 0.1%) at desired final concentrations. Cell viability was assessed before drugs' addition (To) and 5 days after test molecules addition by measuring ATP cell content using CellTiter-Glo® Luminescent Cell Viability Assay (Promega) according to the manufacturer's instructions. Luciferase activity was measured on a luminometer (PerkinElmer® EnVision™). Each concentration of compounds was tested in triplicate.
Viability was calculated as a percentage of ATP value compared to vehicle treated controls.
For PDX primary cell cultures, the tumour tissue was washed with PBS containing antibiotic-antimycotic and non-tumour tissue and necrotic tumour tissues were separated. The tumour tissue was transferred to a new dish and cut into 1˜2 mm^3 fragments, resuspended in RPMI-1640 medium and centrifuged at 1,200 rpm for 6 min at room temperature. The pelleted material was resuspended with 15 mL of Tumour Cell Digestion Solution and incubated at 37° C. for 1 hour with agitation. […]

T1 sequence (P10721 26-976 D816V): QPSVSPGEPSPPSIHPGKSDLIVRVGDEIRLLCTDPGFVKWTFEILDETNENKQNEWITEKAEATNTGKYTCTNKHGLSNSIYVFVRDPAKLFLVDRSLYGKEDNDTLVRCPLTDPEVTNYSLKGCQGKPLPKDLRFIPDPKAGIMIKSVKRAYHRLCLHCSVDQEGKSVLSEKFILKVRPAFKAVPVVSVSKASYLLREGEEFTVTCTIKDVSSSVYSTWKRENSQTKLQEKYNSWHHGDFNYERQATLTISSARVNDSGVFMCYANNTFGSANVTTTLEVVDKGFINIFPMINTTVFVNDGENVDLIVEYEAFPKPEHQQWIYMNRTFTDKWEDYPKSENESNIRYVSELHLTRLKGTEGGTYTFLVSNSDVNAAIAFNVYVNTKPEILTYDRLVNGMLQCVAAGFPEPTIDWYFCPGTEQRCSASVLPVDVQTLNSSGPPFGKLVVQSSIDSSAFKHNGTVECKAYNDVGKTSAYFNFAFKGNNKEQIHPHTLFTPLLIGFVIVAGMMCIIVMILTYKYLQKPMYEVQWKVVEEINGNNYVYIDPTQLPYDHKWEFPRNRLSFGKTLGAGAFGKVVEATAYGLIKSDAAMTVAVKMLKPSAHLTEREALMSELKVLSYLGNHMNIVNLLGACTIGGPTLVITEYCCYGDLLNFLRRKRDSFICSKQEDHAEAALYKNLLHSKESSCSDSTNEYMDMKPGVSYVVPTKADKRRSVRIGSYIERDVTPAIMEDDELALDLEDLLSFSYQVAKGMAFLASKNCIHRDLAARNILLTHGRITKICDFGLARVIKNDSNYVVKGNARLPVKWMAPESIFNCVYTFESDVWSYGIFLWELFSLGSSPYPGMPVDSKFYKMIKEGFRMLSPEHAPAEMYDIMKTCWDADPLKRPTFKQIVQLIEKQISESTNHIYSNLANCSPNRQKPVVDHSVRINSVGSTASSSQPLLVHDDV

COc1c(O)ccc2c(=O)c(O)c(-c3ccc(CCCC[P+](c4ccccc4)(c4ccccc4)c4ccccc4)cc3)oc12 [SND190, (4-(4-(3,7-Dihydroxy-8-methoxy-4-oxo-4H1-chromen-2-yl)phenyl)butyl)triphenylphosphonium bromide]
Kd [1]: 930 nM
IC50 [2]: < 20000 nM
